# Test results published in patent US6730792B2, “β3 adrenergic agonists” (Eli Lilly and Company, priority 2000, dated 2004).
# Target: T1, human β3 adrenergic receptor (Homo sapiens, UniProt P13945)
# T1 construct: expressed in transfected cells; host or cells: DXB-11 Chinese hamster ovary (CHO) cell line, stably transfected (phd expression vector)
# Experiment: whole cell receptor coupled c-AMP assay, human β3 receptor in CHO cells (EC50, Emax relative to isoproterenol)
# Type: cell-based
# Settings: % intrinsic activity relative to isoproterenol maximal response; SEM in brackets; c-AMP in transfected CHO cells
# How it was run: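 Stably transfected DXB-11 CHO cells (20,000/well) were exposed to compound for 20 min at 37 °C in HBSS/HEPES buffer with 1 mM IBMX, pH 7.4. cAMP was measured by SPA. EC50 came from a four-parameter logistic fit, and Emax is the maximal response as a percentage of isoproterenol's.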
# T1 sequence (P13945 whole entry): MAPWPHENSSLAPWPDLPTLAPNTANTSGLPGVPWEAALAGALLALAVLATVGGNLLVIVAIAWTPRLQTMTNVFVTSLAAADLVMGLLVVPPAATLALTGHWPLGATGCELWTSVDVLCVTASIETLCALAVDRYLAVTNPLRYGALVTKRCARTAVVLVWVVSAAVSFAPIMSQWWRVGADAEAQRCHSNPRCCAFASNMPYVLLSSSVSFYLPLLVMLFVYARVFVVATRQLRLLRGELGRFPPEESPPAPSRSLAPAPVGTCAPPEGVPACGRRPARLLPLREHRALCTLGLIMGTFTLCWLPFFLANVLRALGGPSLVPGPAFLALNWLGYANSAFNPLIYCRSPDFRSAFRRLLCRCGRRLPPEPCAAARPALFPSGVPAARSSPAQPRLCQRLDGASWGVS
row,Emax,Compound
1,79.9%,CC(C)(Cc1ccc(Oc2cccnc2C(N)=O)cc1)NC[C@H](O)COc1ccccc1-c1ccc(C(=O)O)s1 [Example 448]

# Same assay, conditions: % intrinsic activity relative to isoproterenol maximal response; average of at least 3 runs; c-AMP in transfected CHO cells
row,Emax (%) ± SEM,Compound
1,72.0 ± 10.5%,Cc1ccc(-c2cccc(F)c2OC[C@@H](O)CNC(C)(C)Cc2ccc(Oc3ncccc3C#N)cc2)s1.Cl [Example 437]
2,61.0 ± 7.1%,CC(C)(Cc1ccc(Oc2ccc(C#N)cn2)cc1)NC[C@H](O)COc1c(F)cccc1-c1ccsc1.Cl [Example 426]
3,43.1 ± 4.3%,CC(C)(Cc1ccc(Oc2ccc(C(N)=O)cn2)cc1)NC[C@H](O)COc1ccccc1-c1cc2ccccc2s1 [Example 385]
4,60.2 ± 3.2%,CC(C)(Cc1ccc(Oc2ccc(C#N)cn2)cc1)NC[C@H](O)COc1ccccc1-c1ccsc1 [Example 378]
5,74.4 ± 7.0%,CC(C)(Cc1ccc(Oc2ccc(C(N)=O)cn2)cc1)NC[C@H](O)COc1ccccc1-c1ccco1.Cl [Example 412]
6,75.0 ± 9.6%,CC(=O)c1ccc(-c2cccc(F)c2OC[C@@H](O)CNC(C)(C)Cc2ccc(Oc3ncccc3C#N)cc2)s1.O=C(O)C(F)(F)F [Example 439]
7,38.9 ± 3.9%,CC(C)(Cc1ccc(Oc2ncccc2C#N)cc1)NC[C@H](O)COc1ccccc1-c1cc2ccccc2o1 [Example 371]
8,65.7 ± 11.4%,CC(C)(Cc1ccc(Oc2ncccc2C#N)cc1)NC[C@H](O)COc1ccccc1-c1ccc(Cl)s1.O=C(O)C(F)(F)F [Example 414]
9,32.3 ± 1.9%,CC(C)(Cc1ccc(Oc2ccc(S(C)(=O)=O)cc2)cc1)NC[C@H](O)COc1ccccc1-c1ccsc1.Cl [Example 382]
10,37.7 ± 1.6%,CC(C)(Cc1ccc(Oc2ccc(C(N)=O)cn2)cc1)NC[C@H](O)COc1ccccc1-c1ccsc1 [Example 379]

# Same assay, conditions: Emax ± SEM; average of at least 3 runs except as otherwise indicated; tested as the isolated form listed
row,Emax (%) ± SEM,Compound
1,52.2 ± 5.9%,CC(C)(Cc1ccc(Oc2ccc(C#N)nc2)cc1)NC[C@H](O)COc1ccccc1-c1ccon1.Cl [Example 300]
2,74.4 ± 1.8%,CC(C)(Cc1ccc(Oc2cccnc2C#N)cc1)NC[C@H](O)COc1ccccc1-c1ccoc1.Cl [Example 307]

# Same assay, conditions: Emax ± standard error of the mean; average of at least 3 runs except where n = 1; compound tested in the isolated form listed
row,Emax (%) ± SEM,Compound
1,89.1 ± 2.7%,CC(C)(Cc1ccc(Oc2ccc(Cl)nn2)cc1)NC[C@H](O)COc1ccccc1-c1ccno1.O=C(O)C(F)(F)F [Example 210]
2,21.1 ± 0.1%,CC(C)(Cc1ccc(Oc2ncccc2C(N)=O)cc1)NC[C@H](O)COc1ccccc1N1CCNC1=O [Example 103]
3,30.4 ± 2.5%,CC(C)(Cc1ccc(Oc2ccc(C(N)=O)cn2)cc1)NC[C@H](O)COc1ccccc1-c1cc2ccccc2[nH]1 [Example 20]
4,<10%,CC(C)(Cc1ccc(Oc2ccc(C(N)=O)cn2)cc1)NC[C@H](O)COc1cccc(C2=NCCN2)c1 [Example 59]
5,32.2 ± 6.5%,COC(=O)c1ccc(Oc2ccc(CC(C)(C)NC[C@H](O)COc3ccccc3-c3ccno3)cc2)nc1 [Example 117]
6,52.6 ± 2.5%,CC(C)(Cc1ccc(Oc2ncccc2C#N)cc1)NC[C@H](O)COc1ccc(F)cc1-c1cccs1.O=C(O)C(=O)O [Example 63]
7,56.6 ± 4.2%,CC(C)(Cc1ccc(Oc2ccc(C(F)(F)F)cn2)cc1)NC[C@H](O)COc1ccccc1-c1nccs1.O=C(O)C(F)(F)F [Example 194]
8,14.4 n = 1%,Cn1nccc1-c1ccccc1OC[C@@H](O)CNC(C)(C)Cc1ccc(Oc2ncccc2C#N)cc1 [Example 48]
9,42.7 ± 9.4%,CC(C)(Cc1ccc(Oc2ccc(S(C)(=O)=O)cc2)cc1)NC[C@H](O)COc1ccccc1-n1cccc1.Cl [Example 265]
10,39.9 ± 4.9%,CC(C)(Cc1ccc(Oc2ccncc2)cc1)NC[C@H](O)COc1ccccc1-c1ccno1.O=C(O)C(F)(F)F [Example 287]
11,24.9 ± 9.3%,CC(C)(Cc1ccc(Oc2ncccc2C(N)=O)cc1)NC[C@H](O)COc1cccc(-c2ccnc(N)n2)c1 [Example 91]
12,83.0 ± 4.0%,CC(C)(Cc1ccc(Oc2cccnc2C(N)=O)cc1)NC[C@H](O)COc1ccccc1-c1ccns1.O=C(O)C(F)(F)F [Example 199]
13,88.5 ± 9.3%,CC(C)(Cc1ccc(Oc2ccc(Cl)nn2)cc1)NC[C@H](O)COc1ccccc1-c1ccns1.O=C(O)C(F)(F)F [Example 211]
14,22.7 ± 1.7%,CC(C)(Cc1ccccc1-c1ccc(C#N)cc1)NC[C@H](O)COc1ccccc1-c1ccno1.Cl [Example 290]
15,64.7 ± 1.3%,CC(C)(Cc1ccc(Oc2ccc(C(N)=O)cn2)cc1)NC[C@H](O)COc1ccccc1-c1cnco1.Cl [Example 46]
16,48.9 ± 2.5%,COC(=O)c1ccc(Oc2ccc(CC(C)(C)NC[C@H](O)COc3ccccc3-c3nccs3)cc2)c(Cl)c1 [Example 140]
17,69.2 ± 12.1%,CC(C)(Cc1ccc(Oc2ncccc2C(N)=O)cc1)NC[C@H](O)COc1ccccc1-n1cccc1.Cl [Example 85]
18,54.5 ± 3.3%,CC(C)(Cc1ccc(Oc2ccc(C(N)=O)cc2F)cc1)NC[C@H](O)COc1ccccc1-c1cccs1.O=C(O)C(F)(F)F [Example 190]
19,74.1 ± 3.3%,CC(C)(Cc1ccc(Oc2ncccc2C#N)cc1)NC[C@H](O)COc1ccccc1-c1cccs1.Cl [Example 51]
20,67.2 ± 4.8%,CC(C)(Cc1ccc(Oc2cccnc2C#N)cc1)NC[C@H](O)COc1ccccc1-c1cccs1.O=C(O)C(F)(F)F [Example 143]
21,30.3 ± 5.1%,CC(C)(Cc1ccc(Oc2ncccc2C(N)=O)cc1)NC[C@H](O)COc1ccccc1N1CCOCC1.Cl.Cl [Example 78]
22,14.4 n = 1%,CC(C)(Cc1ccc(Oc2ncccc2C(N)=O)cc1)NC[C@H](O)COc1cccc(-c2cc[nH]n2)c1 [Example 92]
23,54.2 ± 5.0%,CC(C)(Cc1ccc(Oc2ccc(C(N)=O)cn2)cc1)NC[C@H](O)COc1ccccc1-c1ccon1.Cl [Example 32]
24,70.8 ± 3.1%,CC(C)(Cc1ccc(Oc2ncccc2C#N)cc1)NC[C@H](O)COc1ccccc1-c1ccon1.Cl [Example 60]

row,Emax (%) ± SEM,Compound
1,67.6 ± 4.7%,CC(C)(Cc1ccc(Oc2ccc(C(N)=O)cn2)cc1)NC[C@H](O)COc1ccccc1-c1cccs1 [Example 16]
2,18.0 ± 6.5%,CC(C)(Cc1ccc(Oc2ccc(C#N)cn2)cc1)NC[C@H](O)COc1ccccc1N1CCCC1=O [Example 11]
3,21.4 n = 1%,CC(C)(Cc1ccc(Oc2ccc(S(C)(=O)=O)cc2)cc1)NC[C@H](O)COc1ccccc1-c1ccn[nH]1 [Example 133]
4,60.3 ± 3.9%,CCOC(=O)c1cccnc1Oc1ccc(CC(C)(C)NC[C@H](O)COc2ccccc2-c2ccno2)cc1 [Example 110]
5,49.8 ± 4.5%,CC(C)(Cc1ccc(Oc2ncccc2C#N)cc1)NC[C@H](O)COc1ccccc1-c1cscn1.Cl [Example 239]
6,41.8 ± 5.6%,CC(C)(Cc1ccc(Oc2ncccc2C#N)cc1)NC[C@H](O)COc1ccccc1-c1ccncn1 [Example 57]
7,56.6 n = 1%,COC(=O)c1ccc(Oc2ccc(CC(C)(C)NC[C@H](O)COc3ccccc3-c3ccn(C)n3)cc2)nc1 [Example 114]
8,61.4 ± 4.4%,CCOC(=O)c1cccnc1Oc1ccc(CC(C)(C)NC[C@H](O)COc2ccccc2-c2nccs2)cc1 [Example 109]
9,66.2 ± 1.6%,CC(C)(Cc1ccc(Oc2ccc(S(C)(=O)=O)cc2Cl)cc1)NC[C@H](O)COc1ccccc1-c1cccs1.O=C(O)C(F)(F)F [Example 181]
10,22.4 ± 4.6%,CC(C)(Cc1ccc(Oc2ncccc2C(N)=O)cc1)NC[C@H](O)COc1ccccc1N1CCCC1=O [Example 77]
11,48.3 ± 9.9%,COC(=O)c1ccc(Oc2ccc(CC(C)(C)NC[C@H](O)COc3ccccc3-c3ccno3)cc2)c(Cl)c1 [Example 141]
12,40.3 ± 0.5%,CC(C)(Cc1ccc(Oc2ncccc2C(N)=O)cc1)NC[C@H](O)COc1ccccc1-n1ccc(C=O)c1 [Example 273]
13,66.8 ± 6.8%,CC(C)(Cc1ccc(Oc2ncccc2C#N)cc1)NC[C@H](O)COc1ccccc1-c1ccno1.Cl [Example 54]
14,12.1 n = 1%,CC(C)(Cc1ccc(Oc2ccc(C(N)=O)cn2)cc1)NC[C@H](O)COc1cc(Cl)ccc1-c1nnco1 [Example 31]
15,55.0 ± 1.3%,Cn1ccc(-c2ccccc2OC[C@@H](O)CNC(C)(C)Cc2ccc(Oc3ncccc3C#N)cc2)n1 [Example 4]
16,26.2 ± 4.3%,CC(C)(Cc1ccc(Oc2ccc(C(N)=O)cn2)cc1)NC[C@H](O)COc1ccccc1-c1ccnc(N)n1 [Example 33]
17,74.5 ± 6.7%,CC(C)(Cc1ccc(Oc2cccnc2C#N)cc1)NC[C@H](O)COc1ccccc1-c1ccon1.Cl [Example 297]
18,26.6 n = 1%,Cn1nccc1-c1ccccc1OC[C@@H](O)CNC(C)(C)Cc1ccc(Oc2ncccc2C(N)=O)cc1 [Example 66]
19,33.5 ± 4.2%,CC(C)(Cc1ccc(Oc2ccc(C(N)=O)cn2)cc1)NC[C@H](O)COc1ccccc1C1=CC(=O)OC1.Cl [Example 41]
20,67.7 ± 2.7%,CC(C)(Cc1ccc(Oc2cccnc2C(N)=O)cc1)NC[C@H](O)COc1ccccc1-c1nccs1.O=C(O)C(F)(F)F [Example 197]
21,47.9 ± 3.5%,CC(C)(Cc1ccc(Oc2ccccc2C#N)cc1)NC[C@H](O)COc1ccccc1-c1cscn1.Cl [Example 243]
22,46.6 ± 4.2%,CC(C)(Cc1ccc(Oc2cnccn2)cc1)NC[C@H](O)COc1ccccc1-c1ccno1.O=C(O)C(F)(F)F [Example 155]
23,38.4 ± 3.8%,CC(C)(Cc1ccc(Oc2ccc(C(N)=O)cc2F)cc1)NC[C@H](O)COc1ccccc1-c1cscn1.Cl [Example 252]
24,13.7 ± 3.5%,CC(C)(Cc1ccc(Oc2ccc(C(N)=O)cn2)cc1)NC[C@H](O)COc1ccccc1N1CCNCC1.Cl.Cl.Cl [Example 25]
